# From ChEMBL document CHEMBL1136664, “N-Phenyl-N-purin-6-yl ureas: the design and synthesis of p38alpha MAP kinase inhibitors” (Bioorg Med Chem Lett, 2003)
# Tested on: not listed separately
# Assay: Aqueous solubility at pH 7.4
# Format: physicochemical
row,solubility [µM],Compound
1,> 20,CN(C)CCn1cnc2c(N(C(N)=O)c3c(F)cccc3F)nc(-c3ccccc3F)nc21
2,1,Cn1cnc2c(N(C(N)=O)c3c(F)cccc3F)nc(-c3ccccc3F)nc21

# Molecular target: Mitogen-activated protein kinase 14 (Homo sapiens, UniProt Q16539)
# Assay: Inhibition of human MAP p38-alpha kinase in vitro.
# Chain of Mitogen-activated protein kinase 14 (Q16539 whole entry): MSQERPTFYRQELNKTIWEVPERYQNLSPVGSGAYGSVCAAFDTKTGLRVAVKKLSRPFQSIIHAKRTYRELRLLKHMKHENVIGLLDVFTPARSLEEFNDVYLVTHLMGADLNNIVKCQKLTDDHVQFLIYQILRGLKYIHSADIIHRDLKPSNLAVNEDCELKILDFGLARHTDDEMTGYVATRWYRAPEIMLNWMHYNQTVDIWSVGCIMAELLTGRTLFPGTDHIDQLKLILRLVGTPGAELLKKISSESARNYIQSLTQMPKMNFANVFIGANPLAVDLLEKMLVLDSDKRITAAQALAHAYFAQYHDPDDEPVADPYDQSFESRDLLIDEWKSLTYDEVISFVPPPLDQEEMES
row,Compound,IC50 [nM]
1,NC(=O)N(c1c(F)cccc1F)c1nc(-c2ccccc2F)nc2c1ncn2Cc1ccccc1,16
2,Cc1ccc(-c2nc(N(C(N)=O)c3c(F)cccc3F)c3ncn(C)c3n2)cc1,2100
3,Cc1cccc(-c2nc(N(C(N)=O)c3c(F)cccc3F)c3ncn(C)c3n2)c1,350
4,Cc1cc(F)ccc1-c1nc(N(C(N)=O)c2c(F)cc(F)cc2F)c2ncn(C)c2n1,163
5,Cc1cc(F)ccc1-c1nc(N(C(N)=O)c2ccc(F)cc2)c2ncn(C)c2n1,1400
6,Cc1ccccc1-c1nc(N(C(N)=O)c2c(F)cccc2F)c2ncn(C)c2n1,140
7,Cc1cc(F)ccc1-c1nc(N(C(N)=O)c2ccccc2)c2ncn(C)c2n1,> 16700
8,Cn1cnc2c(N(C(N)=O)c3c(F)cccc3F)nc(-c3ccc(F)cc3F)nc21,26
9,Cn1cnc2c(N(C(N)=O)c3c(F)cccc3F)nc(-c3cccc(Cl)c3)nc21,550
10,CN(C)CCn1cnc2c(N(C(N)=O)c3c(F)cccc3F)nc(-c3ccccc3F)nc21,82

# Second part, the compound after the results:
row,IC50 [nM],Compound
1,> 16700,Cn1cnc2c(N(C(N)=O)c3c(F)cccc3F)nc(-c3cc(F)cc(F)c3)nc21
2,123,Cc1cc(F)ccc1-c1nc(N(C(N)=O)c2ccccc2Cl)c2ncn(C)c2n1
3,510,Cn1cnc2c(N(C(N)=O)c3c(F)cccc3F)nc(-c3ccccc3)nc21
4,128,Cc1cc(F)ccc1-c1nc(N(C(N)=O)c2c(F)cccc2F)c2ncn(C)c2n1
5,5000,Cn1cnc2c(N(C(N)=O)c3c(F)cccc3F)nc(-c3cccc(F)c3)nc21
6,1000,Cn1cnc2c(N(C(N)=O)c3c(F)cccc3F)nc(-c3ccc(F)cc3)nc21
7,> 16700,COc1ccccc1N(C(N)=O)c1nc(-c2ccc(F)cc2C)nc2c1ncn2C
8,36,Cn1cnc2c(N(C(N)=O)c3c(F)cccc3F)nc(-c3ccccc3F)nc21
9,9800,Cc1cc(F)ccc1-c1nc(N(C(N)=O)c2ccc(Cl)cc2)c2ncn(C)c2n1
10,30,Cn1cnc2c(N(C(N)=O)c3c(F)cccc3F)nc(-c3ccccc3Cl)nc21
